Here are results for 22 compounds from patent US11033547B2, “Carboxamide-pyrimidine derivatives as SHP2 antagonists” (Merck Patent GmbH, priority 2019, dated 2021).

The test system of series [1] is pERK level in KYSE520 cells. Briefly: p-Erk cellular assay in KYSE520 (Mesoscale). The following applies: Homo sapiens, KYSE-520, 2 h, 2 h incubation, read-out: pERK1/2 in KYSE520 IC50. In kind it is cell-based. The method, then: (§1) p-Erk Cellular Assay in MDA-MB-468 and KYSE520:
(§2) The effect of SHP2 inhibitors on pERK level was assessed using phospho-specific antibody using Mesoscale quantification platform. For measuring change in pERK levels using mesoscale, 30,000 cells of MDA MB468 and KYSE520 cells were plated in 96-well tissue culture treated plate in 175 ul volume of media. After an overnight incubation at 37° C., various SHP2 inhibitors were added in different concentration to each well maintaining duplicate wells across plates and incubated with compounds for 2 h at 37° C. followed by a wash with ice cold PBS buffer. The cells were then lysed in lysis buffer and processed and analyzed for p-ERK/ERK as per manufacturer's instructions (Mesoscale discovery, cat No. K15107D-3).

For series [2], the target named is Full length SHP2 protein (Recombinant Human SHP-2) (Homo sapiens, UniProt Q06124). Briefly: SHP2 biochemical assay (DiFMUP substrate, activating peptide IRSI_2pY). The following applies: DiFMUP substrate, activating peptide IRSI_2pY, 60 min at RT; read-out: SHP-2 Biochemical assay IC50. The method, then:
The inhibition of SHP2 by compounds of the invention was monitored using the surrogate substrate DiFMUP after protein activation by a peptide bearing two appropriately spaced phosphotyrosine. […] The generation of the DiFMU product by activated SHP2 was monitored through Fluorescence measurement with a PerkinElmer Envision reader.
The inhibitor dose response curves were analyzed with Genedata Screener.

Series [3] relates to pERK level in MDA-MB-468 cells. Briefly: p-Erk cellular assay in MDA-MB-468 (Mesoscale). Type of series: cell-based. Particulars: 2 h incubation, read-out: pERK1/2 in MDA-MB-468 IC50. As to the method: as §1, §2
Series [4] can be described thus: Pharmacokinetics in female CD1 mice (oral / intravenous). In kind it is in vivo. The following applies: mouse PK; for clearance / Vd: female, CD1, plasma, intravenous; for Vd: read-out: Vd ss. The method, then: Female CD1 mice (N=3) received a single oral (gavage) or a single intravenous (bolus) injection of compound. […] Consecutive blood samples were taken sub-lingually under isofluorane inhalation from animals after 0.083 (IV), 0.25, 0.5, 1, 2, 4, 6 and 24 h and were further processed to obtain plasma. Samples were protein precipitated and analyzed by LC/MS/MS.

Like-named read-outs stand apart in the source and are kept apart here.

Chain of Full length SHP2 protein (Recombinant Human SHP-2) (Q06124 2-593 limits assumed): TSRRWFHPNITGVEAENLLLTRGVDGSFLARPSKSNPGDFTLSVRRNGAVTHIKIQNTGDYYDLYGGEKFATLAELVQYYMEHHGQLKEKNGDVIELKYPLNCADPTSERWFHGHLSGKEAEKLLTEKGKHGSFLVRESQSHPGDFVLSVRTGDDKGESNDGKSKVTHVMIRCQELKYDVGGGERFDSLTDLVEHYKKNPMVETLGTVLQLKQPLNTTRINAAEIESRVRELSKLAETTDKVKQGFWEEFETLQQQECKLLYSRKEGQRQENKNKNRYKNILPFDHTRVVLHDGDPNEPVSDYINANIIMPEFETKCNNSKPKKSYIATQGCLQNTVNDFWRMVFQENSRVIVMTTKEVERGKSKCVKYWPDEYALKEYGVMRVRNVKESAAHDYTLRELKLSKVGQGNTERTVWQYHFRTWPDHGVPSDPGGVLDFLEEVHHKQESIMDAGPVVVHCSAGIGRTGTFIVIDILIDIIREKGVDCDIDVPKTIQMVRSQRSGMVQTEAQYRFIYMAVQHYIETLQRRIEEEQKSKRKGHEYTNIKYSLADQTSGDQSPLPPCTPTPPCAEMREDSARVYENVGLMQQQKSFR

With `C[C@@]1(N)CCCN(c2nc(N)c(-c3cccc(Cl)c3Cl)c(C(N)=O)n2)CC1` (atropisomer, axis not shown; (P)) [Compound 109, (5P)-6-amino-2-[(4R)-4-amino-4-methylazepan-1-yl]-5-(2,3-dichlorophenyl)-pyrimidine-4-carboxamide], the IC50 stood at 0.468 µM in series [1]; 0.071 µM in series [2]; 0.42 µM in series [3] (Homo sapiens, MDA-MB-468, 2 h).
Turning to `CC1(N)CCN(c2nc(N)c(-c3cccc(Cl)c3Cl)c(C(N)=O)n2)CC1` (single isomer, unassigned) [Compound 27, (4P)-6-Amino-2-(4-amino-4-methyl-piperidin-1-yl)-5-(2,3-dichloro-phenyl)-pyrimidine-4-carboxylic Acid Amide], the IC50 in series [1] is 1.47 µM. For the same compound, the IC50 in series [2] amounted to 0.082 µM. In series [4], the clearance is 37.3 mL/min/kg, the Vd worked out at 8.7 L/kg, the “Clearance as compared to SHP-099 (in words)” value is on record as “lower clearance” and the “Exposure as compared to SHP-099 (in words)” value is “higher exposure”. The IC50 in series [3] (Homo sapiens, MDA-MB-468, 2 h) stood at 0.342 µM.
Turning to `Cc1nc(N2CCC3(CC2)CO[C@@H](C)[C@H]3N)nc(C(N)=O)c1-c1cccc(Cl)c1Cl` (single isomer, unassigned) [Compound 95], in series [1], the IC50 came out at 0.486 µM. For the same compound, the IC50 in series [2] stood at 0.022 µM. Besides, in series [4], the clearance was 12.8 mL/min/kg, the Vd worked out at 3.99 L/kg, the “Clearance as compared to SHP-099 (in words)” value is given as “lower clearance” and the “Exposure as compared to SHP-099 (in words)” value is on record as “higher exposure”. Moreover, in series [3] (Homo sapiens, MDA-MB-468, 2 h), the IC50 was found to be 0.497 µM.
On to `NC[C@]12CCCC[C@H]1CN(c1nc(N)c(-c3cccc(Cl)c3Cl)c(C(N)=O)n1)C2` (single isomer, unassigned) [Compound 101], for which the IC50 came out at 0.39 µM in series [1]; 0.075 µM in series [2]; 0.445 µM in series [3] (Homo sapiens, MDA-MB-468, 2 h).
For the compound `Cc1nc(N2CCC3(CCC[C@H]3N)CC2)nc(C(N)=O)c1-c1cccc(Cl)c1Cl` (single isomer, unassigned) [Compound 114], the IC50 in series [1] came to 0.284 µM; in series [2], 0.045 µM; in series [3] (Homo sapiens, MDA-MB-468, 2 h) it was 0.316 µM.
In the case of `NC(=O)c1nc(N2CCC3(CCC[C@H]3N)CC2)nc(N)c1-c1cccc(Cl)c1Cl` [Compound 7, 6-amino-2-[(1R)-1-amino-8-azaspiro[4.5]decan-8-yl]-5-(2,3-dichlorophenyl)pyrimidine-4-carboxamide], the IC50 in series [1] is 1.37 µM; in series [2], 0.12 µM; in series [3] (Homo sapiens, MDA-MB-468, 2 h), 0.606 µM.
In the case of `NC(=O)c1nc(N2CCC3(CC2)CC(F)(F)C[C@H]3N)nc(N)c1-c1cccc(Cl)c1Cl` [Compound 8, 6-amino-2-[(1R)-1-amino-3,3-difluoro-8-azaspiro[4.5]decan-8-yl]-5-(2,3-dichlorophenyl)pyrimidine-4-carboxamide], the IC50 in series [1] was found to be 1.51 µM; in series [2] it was 0.2 µM; in series [3] (Homo sapiens, MDA-MB-468, 2 h), 2.18 µM.
The matching figures for `CNC(=O)c1nc(N2CCC(C)(N)CC2)nc(N)c1-c1cccc(Cl)c1Cl` [Compound 9, 6-Amino-2-(4-amino-4-methyl-piperidin-1-yl)-5-(2,3-dichlorophenyl)-pyrimidine-4-carboxylic Acid Methylamide]: 6.44 µM, 1.1 µM and 1.5 µM.
For `NCC1CN(c2nc(N)c(-c3cccc(Cl)c3Cl)c(C(N)=O)n2)CC12CCC2` (centres unmarked) [Compound 11, 6-amino-2-[8-(aminomethyl)-6-azaspiro[3.4]octan-6-yl]-5-(2,3-dichlorophenyl)pyrimidine-4-carboxamide], the IC50 is 10.2 µM in series [1]; 0.59 µM in series [2]; 1.83 µM in series [3] (Homo sapiens, MDA-MB-468, 2 h).
As for `Cc1nc(N2CCC(C)(N)CC2)nc(C(N)=O)c1-c1cccc(Cl)c1Cl` [Compound 18, 2-(4-Amino-4-methyl-piperidin-1-yl)-5-(2,3-dichloro-phenyl)-6-methyl-pyrimidine-4-carboxylic Acid Amide], the IC50 in series [1] worked out at 2.4 µM; in series [2] it was 0.104 µM; in series [3] it was 0.231 µM.
Turning to `CC1(N)CCN(c2nc(N)c(-c3cccc(Cl)c3Cl)c(C(=O)NO)n2)CC1` [Compound 20, 6-Amino-2-(4-amino-4-methyl-piperidin-1-yl)-5-(2,3-dichlorophenyl)-pyrimidine-4-carboxylic Acid Hydroxyamide], the IC50 turned out to be 8.45 µM in series [1]; 0.15 µM in series [2]; 0.492 µM in series [3] (Homo sapiens, MDA-MB-468, 2 h).
Take `NCC12CCCCC1CN(c1nc(N)c(-c3cccc(Cl)c3Cl)c(C(N)=O)n1)C2` (centres unmarked) [Compound 24, 2-[3a-(aminomethyl)-octahydro-1H-isoindol-2-yl]-6-amino-5-(2,3-dichlorophenyl)pyrimidine-4-carboxamide]: the IC50 in series [1] was 7.65 µM; in series [2] it was 0.27 µM; in series [3] (Homo sapiens, MDA-MB-468, 2 h), 2.35 µM.
The matching figures for `Cc1nc(NC2CCCC(N)C2)nc(C(N)=O)c1-c1cccc(Cl)c1Cl` (centres unmarked) [Compound 28, 2-(3-Amino-cyclohexyl-amino)-5-(2,3-dichloro-phenyl)-6-methyl-pyrimidine-4-carboxylic acid amide]: 11.5 µM, 0.36 µM and 1.63 µM.
With `NC(=O)c1nc(N2CCC(N)(CO)CC2)nc(N)c1-c1cccc(Cl)c1Cl` [Compound 29, 6-amino-2-[4-amino-4-(hydroxymethyl)piperidin-1-yl]-5-(2,3-dichlorophenyl)-pyrimidine-4-carboxamide], the IC50 in series [1] came to 7.7 µM; in series [2], 0.26 µM; in series [3] (Homo sapiens, MDA-MB-468, 2 h), 1.17 µM.
The matching figures for `Cc1nc(N(C)C2CCC(N)CC2)nc(C(N)=O)c1-c1cccc(Cl)c1Cl` (centres unmarked) [Compound 32, 2-[(4-Amino-cyclohexyl)-methyl-amino]-5-(2,3-dichlorophenyl)-6-methyl-pyrimidine-4-carboxylic acid amide]: 3.61 µM, 0.2 µM and 0.736 µM.
The matching figures for `CC1(CN)CCN(c2nc(N)c(-c3cccc(Cl)c3Cl)c(C(N)=O)n2)CC1` [Compound 41, 6-amino-2-[4-(aminomethyl)-4-methylpiperidin-1-yl]-5-(2,3-dichlorophenyl)pyrimidine-4-carboxamide]: 2.99 µM, 0.31 µM and 0.908 µM.
For the compound `Cc1nc(N2CCCC(C)(N)CC2)nc(C(N)=O)c1-c1cccc(Cl)c1Cl` (centres unmarked) [Compound 45, 2-(4-Amino-4-methyl-azepan-1-yl)-5-(2,3-dichloro-phenyl)-6-methyl-pyrimidine-4-carboxylic acid amide], the IC50 in series [1] came to 2.1 µM; in series [2], 0.17 µM; in series [3] (Homo sapiens, MDA-MB-468, 2 h) it was 0.646 µM.
In the case of `NC(=O)c1nc(N2CCCC(N)CC2)nc(N)c1-c1cccc(Cl)c1Cl` (centres unmarked) [Compound 49, 6-amino-2-(4-aminoazepan-1-yl)-5-(2,3-dichlorophenyl)-pyrimidine-4-carboxamide], the IC50 in series [1] is 2.54 µM; in series [2], 0.12 µM; in series [3] (Homo sapiens, MDA-MB-468, 2 h), 0.683 µM.
The matching figures for `CCCC1(N)CCN(c2nc(N)c(-c3cccc(Cl)c3Cl)c(C(N)=O)n2)CC1` [Compound 53, 6-amino-2-(4-amino-4-propylpiperidin-1-yl)-5-(2,3-dichloro-phenyl)pyrimidine-4-carboxamide]: 1.3 µM, 0.2 µM and 0.652 µM.
`Cc1nc(N2CCC(C)(N)CC2)nc(C(N)=O)c1-c1ccnc(Cl)c1Cl` [Compound 81, 2-(4-Amino-4-methyl-piperidin-1-yl)-5-(2,3-dichloro-pyridin-4-yl)-6-methyl-pyrimidine-4-carboxylic acid amide]: the IC50 was determined as 11.3 µM in series [1]; 0.72 µM in series [2]; 1.72 µM in series [3] (Homo sapiens, MDA-MB-468, 2 h).
The matching figures for `Cc1nc(N2CCC3(CC2)CO[C@@H](C)[C@H]3N)nc(C(N)=O)c1-c1cccc(Cl)c1Cl` [Compound 85, 2-[(3S,4S)-4-amino-3-methyl-2-oxa-8-azaspiro[4.5]decan-8-yl]-5-(2,3-dichlorophenyl)-6-methylpyrimidine-4-carboxamide]: 1.24 µM, 0.048 µM and 0.407 µM.
For the compound `CN(c1nc(N)c(-c2cccc(Cl)c2Cl)c(C(N)=O)n1)[C@H]1CC[C@H](N)CC1` [Compound 112, 6-Amino-2-[(4-amino-cyclohexyl)-methyl-amino]-5-(2,3-dichloro-phenyl)-pyrimidine-4-carboxylic acid amide], the IC50 was 0.596 µM in series [1]; 0.066 µM in series [2]; 0.67 µM in series [3] (Homo sapiens, MDA-MB-468, 2 h).
